From patent US6022696A, “Methods of identifying agonists or antagonists of angiotensin IV” (Washington State University Research Foundation, priority 1998, dated 2000) come the findings set out here.

For data set [1], the system named is rat. In words: Systemic arterial blood pressure during renal artery infusion.
In data set [2] the test system is rat. To be noted: in vivo.

Structures are written as SMILES. Like-named read-outs stand apart in the source and are kept apart here. Non-standard residues stand in square brackets, D forms with d. Residues, ends and D or L forms follow the SMILES beside them. Nle = CCCC[C@H](N)C(=O)O

Regarding `CC[C@H](C)[C@H](NC(=O)[C@H](Cc1ccc(O)cc1)NC(=O)[C@@H](N)CCCCN)C(=O)N[C@@H](Cc1c[nH]cn1)C(=O)N1CCC[C@H]1C(=O)N[C@@H](Cc1ccccc1)C(=O)O` [KYIHPF] (H-KYIHPF-OH), the “effect on arterial blood pressure” value in data set [1] is “no significant changes in arterial blood pressure”.

On to `CCCC[C@H](N)C(=O)N[C@@H](Cc1ccc(O)cc1)C(=O)N[C@H](C(=O)N[C@@H](Cc1cnc[nH]1)C(=O)N1CCC[C@H]1C(=O)N[C@@H](Cc1ccccc1)C(=O)O)[C@@H](C)CC` [NleYIHPF] (H-[Nle]YIHPF-OH), for which the “effect on arterial blood pressure” value in data set [2] is listed as “no effect on mean arterial pressure”.
